Series [1] concerns the target Receptor-type tyrosine-protein kinase FLT3 (Homo sapiens, UniProt P36888, D835Y). Nature of the series: Inhibition of human FLT3 D835Y mutant in presence of ATP.
The target in series [2] is Macrophage colony-stimulating factor 1 receptor (Homo sapiens, UniProt P07333). Nature of the series: Inhibition of human FMS in presence of ATP.
In series [3] the target is Tyrosine-protein kinase Mer (Homo sapiens, UniProt Q12866). Nature of the series: Inhibition of human MER in presence of ATP.
Sequence of Tyrosine-protein kinase Mer (Q12866 whole entry): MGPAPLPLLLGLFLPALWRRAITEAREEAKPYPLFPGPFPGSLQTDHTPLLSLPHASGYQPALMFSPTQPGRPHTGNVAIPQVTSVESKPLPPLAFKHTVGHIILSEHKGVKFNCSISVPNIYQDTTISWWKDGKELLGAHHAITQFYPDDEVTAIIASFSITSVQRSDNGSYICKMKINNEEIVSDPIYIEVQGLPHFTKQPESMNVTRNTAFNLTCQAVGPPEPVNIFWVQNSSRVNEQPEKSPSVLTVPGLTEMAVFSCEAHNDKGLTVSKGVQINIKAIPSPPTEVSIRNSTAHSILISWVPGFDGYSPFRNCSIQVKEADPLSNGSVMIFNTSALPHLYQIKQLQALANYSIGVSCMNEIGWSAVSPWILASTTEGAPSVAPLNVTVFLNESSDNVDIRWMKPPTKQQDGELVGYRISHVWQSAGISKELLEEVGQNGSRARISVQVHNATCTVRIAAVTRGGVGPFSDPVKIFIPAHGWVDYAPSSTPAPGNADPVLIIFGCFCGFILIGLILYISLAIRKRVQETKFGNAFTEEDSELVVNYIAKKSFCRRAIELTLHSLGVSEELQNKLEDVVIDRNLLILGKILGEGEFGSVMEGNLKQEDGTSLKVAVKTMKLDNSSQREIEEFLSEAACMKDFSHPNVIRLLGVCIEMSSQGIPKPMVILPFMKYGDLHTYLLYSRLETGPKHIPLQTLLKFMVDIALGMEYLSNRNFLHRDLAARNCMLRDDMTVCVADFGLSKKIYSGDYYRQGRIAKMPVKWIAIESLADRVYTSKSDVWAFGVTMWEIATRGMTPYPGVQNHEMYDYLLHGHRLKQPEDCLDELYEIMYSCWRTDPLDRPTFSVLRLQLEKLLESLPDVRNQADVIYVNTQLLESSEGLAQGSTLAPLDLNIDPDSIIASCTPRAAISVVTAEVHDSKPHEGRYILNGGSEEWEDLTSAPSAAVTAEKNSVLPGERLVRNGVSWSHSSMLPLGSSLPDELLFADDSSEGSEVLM
Series [4] has as its target T1, Receptor-type tyrosine-protein kinase FLT3 (Homo sapiens, UniProt P36888).
T1 sequence (P36888 whole entry): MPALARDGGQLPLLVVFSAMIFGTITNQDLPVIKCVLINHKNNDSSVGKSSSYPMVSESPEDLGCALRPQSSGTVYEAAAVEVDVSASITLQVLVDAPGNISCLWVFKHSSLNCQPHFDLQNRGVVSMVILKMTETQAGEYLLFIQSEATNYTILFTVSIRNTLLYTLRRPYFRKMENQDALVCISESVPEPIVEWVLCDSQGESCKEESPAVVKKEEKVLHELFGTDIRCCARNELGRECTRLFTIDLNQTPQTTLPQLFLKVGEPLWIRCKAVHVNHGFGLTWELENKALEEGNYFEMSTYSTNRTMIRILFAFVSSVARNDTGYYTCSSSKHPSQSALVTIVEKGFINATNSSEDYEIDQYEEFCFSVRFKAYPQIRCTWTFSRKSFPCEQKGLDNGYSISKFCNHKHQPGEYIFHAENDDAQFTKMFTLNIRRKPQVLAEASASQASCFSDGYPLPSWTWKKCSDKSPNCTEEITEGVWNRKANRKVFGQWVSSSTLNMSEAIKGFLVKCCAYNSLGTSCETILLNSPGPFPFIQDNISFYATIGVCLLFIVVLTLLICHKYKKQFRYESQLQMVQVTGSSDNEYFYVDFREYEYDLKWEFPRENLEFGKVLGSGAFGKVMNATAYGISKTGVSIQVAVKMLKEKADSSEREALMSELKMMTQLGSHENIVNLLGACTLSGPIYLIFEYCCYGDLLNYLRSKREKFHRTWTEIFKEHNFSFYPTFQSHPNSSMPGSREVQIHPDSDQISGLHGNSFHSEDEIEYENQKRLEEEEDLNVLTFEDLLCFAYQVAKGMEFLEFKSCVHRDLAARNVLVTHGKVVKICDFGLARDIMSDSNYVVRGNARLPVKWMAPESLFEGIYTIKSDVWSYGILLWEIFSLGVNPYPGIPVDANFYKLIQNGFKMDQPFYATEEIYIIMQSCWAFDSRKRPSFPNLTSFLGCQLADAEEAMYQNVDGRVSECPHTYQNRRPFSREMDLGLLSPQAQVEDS
Description: Inhibition of recombinant His-tagged human FLT3 expressed in baculovirus expression system using peptide substrate incubated for 30 mins in presence of ATP by HTRF assay

The test system of series [5] is HepG2. Nature of the series: cells. The following applies: Homo sapiens.
Description: Antiproliferative activity against human HepG2 cells assessed as cell growth inhibition by WST assay
The target of series [6] is Cyclin-dependent kinase 2 (Homo sapiens) (UniProt P24941). Nature of the series: Inhibition of human CDK2 at 100 nM in presence of ATP relative to control.
For series [7], the target named is hERG (KCNH2) (Homo sapiens, UniProt Q12809). Nature of the series: Inhibition of human ERG at 10 uM relative to control.
Sequence of hERG (KCNH2) (Q12809 whole entry): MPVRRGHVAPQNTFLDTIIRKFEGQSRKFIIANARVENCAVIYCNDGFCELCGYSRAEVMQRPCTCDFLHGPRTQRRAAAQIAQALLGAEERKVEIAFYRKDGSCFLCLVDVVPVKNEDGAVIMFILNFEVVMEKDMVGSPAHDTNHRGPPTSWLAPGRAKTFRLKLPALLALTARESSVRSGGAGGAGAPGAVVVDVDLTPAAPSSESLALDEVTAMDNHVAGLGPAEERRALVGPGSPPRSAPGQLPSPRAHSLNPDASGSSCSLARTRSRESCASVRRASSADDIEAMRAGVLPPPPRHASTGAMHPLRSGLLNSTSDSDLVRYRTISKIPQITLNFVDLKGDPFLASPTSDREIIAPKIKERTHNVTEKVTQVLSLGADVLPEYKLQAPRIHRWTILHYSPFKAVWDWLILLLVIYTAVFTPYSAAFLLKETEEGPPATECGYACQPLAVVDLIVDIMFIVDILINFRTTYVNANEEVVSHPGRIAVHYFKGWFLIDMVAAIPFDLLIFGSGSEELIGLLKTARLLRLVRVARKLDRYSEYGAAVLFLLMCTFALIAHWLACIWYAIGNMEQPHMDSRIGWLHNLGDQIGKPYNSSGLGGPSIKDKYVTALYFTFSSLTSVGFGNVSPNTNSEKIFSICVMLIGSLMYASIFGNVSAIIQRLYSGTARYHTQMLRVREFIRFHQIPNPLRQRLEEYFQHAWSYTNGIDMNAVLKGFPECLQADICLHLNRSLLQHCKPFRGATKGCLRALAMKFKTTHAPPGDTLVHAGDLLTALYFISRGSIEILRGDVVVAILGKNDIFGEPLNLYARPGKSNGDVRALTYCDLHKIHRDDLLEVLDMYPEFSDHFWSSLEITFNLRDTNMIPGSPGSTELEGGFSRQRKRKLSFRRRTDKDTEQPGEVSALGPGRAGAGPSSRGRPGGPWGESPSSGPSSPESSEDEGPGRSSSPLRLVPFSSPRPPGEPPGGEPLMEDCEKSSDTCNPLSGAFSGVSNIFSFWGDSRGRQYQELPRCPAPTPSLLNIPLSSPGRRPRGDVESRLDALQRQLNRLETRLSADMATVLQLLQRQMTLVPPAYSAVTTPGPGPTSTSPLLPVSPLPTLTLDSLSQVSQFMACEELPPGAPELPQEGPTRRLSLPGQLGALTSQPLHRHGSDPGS
Series [8] concerns the target High affinity nerve growth factor receptor (Homo sapiens, UniProt P04629). Nature of the series: Inhibition of human TrkA at 100 nM in presence of ATP relative to control.
Series [9] in a line: Oral bioavailability in ICR mouse at 10 mg/kg measured up to 1440 mins by LC-MS/MS analysis. Format: ADME, organism-based. The settings on record: in vivo.
For series [10], the target named is Proto-oncogene tyrosine-protein kinase receptor Ret (Homo sapiens, UniProt P07949). Nature of the series: Inhibition of human RET at 100 nM in presence of ATP relative to control.
Sequence of Proto-oncogene tyrosine-protein kinase receptor Ret (P07949 whole entry): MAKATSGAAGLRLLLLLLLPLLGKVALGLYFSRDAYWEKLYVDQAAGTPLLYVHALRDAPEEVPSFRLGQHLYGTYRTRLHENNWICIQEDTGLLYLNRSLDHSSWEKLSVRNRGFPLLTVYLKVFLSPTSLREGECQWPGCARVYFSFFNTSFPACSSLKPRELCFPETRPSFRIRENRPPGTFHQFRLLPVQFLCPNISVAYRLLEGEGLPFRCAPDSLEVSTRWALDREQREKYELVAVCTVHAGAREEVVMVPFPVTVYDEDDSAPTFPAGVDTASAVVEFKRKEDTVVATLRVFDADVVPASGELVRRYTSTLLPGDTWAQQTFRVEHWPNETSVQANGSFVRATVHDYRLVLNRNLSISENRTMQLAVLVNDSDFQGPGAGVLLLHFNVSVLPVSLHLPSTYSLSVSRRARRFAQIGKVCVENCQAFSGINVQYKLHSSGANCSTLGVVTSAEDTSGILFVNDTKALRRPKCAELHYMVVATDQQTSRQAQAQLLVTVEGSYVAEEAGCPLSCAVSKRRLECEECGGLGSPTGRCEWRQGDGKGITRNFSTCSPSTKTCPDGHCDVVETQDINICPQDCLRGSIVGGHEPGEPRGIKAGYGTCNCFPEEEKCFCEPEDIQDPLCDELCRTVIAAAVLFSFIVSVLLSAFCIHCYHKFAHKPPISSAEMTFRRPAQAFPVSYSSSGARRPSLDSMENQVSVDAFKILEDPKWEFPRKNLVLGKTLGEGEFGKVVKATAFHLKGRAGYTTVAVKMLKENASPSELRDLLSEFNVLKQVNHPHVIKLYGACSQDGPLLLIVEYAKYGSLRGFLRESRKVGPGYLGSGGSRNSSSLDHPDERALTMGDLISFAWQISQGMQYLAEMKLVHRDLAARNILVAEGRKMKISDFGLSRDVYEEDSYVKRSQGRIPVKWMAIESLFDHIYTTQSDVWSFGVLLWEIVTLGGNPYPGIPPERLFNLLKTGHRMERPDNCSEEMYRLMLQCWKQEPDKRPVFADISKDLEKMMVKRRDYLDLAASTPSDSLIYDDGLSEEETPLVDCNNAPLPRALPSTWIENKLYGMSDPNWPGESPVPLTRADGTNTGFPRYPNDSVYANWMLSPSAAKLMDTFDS

Results on one compound are retold here after ChEMBL document CHEMBL4765285, “Discovery of orally active indirubin-3'-oxime derivatives as potent type 1 FLT3 inhibitors for acute myeloid leukemia” (Eur J Med Chem, 2020).

pIC50: −log10 of the molar value.

As usually defined, the pIC50 is −log10 of the IC50, conventionally taken in molar units. A word on the GI50: it is the concentration that inhibits growth by half. The inhibition is the change of the read-out against control, counted positive when it falls. By bioavailability is commonly meant the share of a dose that reaches the circulation, judged against a reference dose that is usually intravenous. Lower therefore signals little systemic uptake.

Sequence of High affinity nerve growth factor receptor (P04629 33-796 limits assumed): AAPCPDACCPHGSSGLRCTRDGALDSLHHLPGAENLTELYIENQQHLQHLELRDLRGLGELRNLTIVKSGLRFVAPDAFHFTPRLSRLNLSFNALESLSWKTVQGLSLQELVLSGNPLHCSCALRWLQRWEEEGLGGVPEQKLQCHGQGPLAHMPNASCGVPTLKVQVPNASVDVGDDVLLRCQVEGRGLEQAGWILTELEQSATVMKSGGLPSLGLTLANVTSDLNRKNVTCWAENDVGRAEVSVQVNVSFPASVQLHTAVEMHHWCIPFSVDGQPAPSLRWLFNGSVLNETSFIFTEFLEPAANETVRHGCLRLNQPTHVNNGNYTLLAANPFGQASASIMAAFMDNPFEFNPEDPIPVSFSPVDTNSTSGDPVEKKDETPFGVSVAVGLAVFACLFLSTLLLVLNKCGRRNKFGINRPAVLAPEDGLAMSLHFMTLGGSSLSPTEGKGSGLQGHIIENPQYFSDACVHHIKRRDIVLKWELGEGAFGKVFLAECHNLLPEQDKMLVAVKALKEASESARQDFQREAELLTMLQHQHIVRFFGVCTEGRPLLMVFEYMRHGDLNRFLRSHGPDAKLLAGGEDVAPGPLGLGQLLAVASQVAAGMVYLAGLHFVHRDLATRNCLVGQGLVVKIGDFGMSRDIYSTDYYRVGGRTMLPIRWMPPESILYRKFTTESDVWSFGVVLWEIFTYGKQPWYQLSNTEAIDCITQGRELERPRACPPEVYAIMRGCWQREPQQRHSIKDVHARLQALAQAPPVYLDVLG
Sequence of Macrophage colony-stimulating factor 1 receptor (P07333 whole entry): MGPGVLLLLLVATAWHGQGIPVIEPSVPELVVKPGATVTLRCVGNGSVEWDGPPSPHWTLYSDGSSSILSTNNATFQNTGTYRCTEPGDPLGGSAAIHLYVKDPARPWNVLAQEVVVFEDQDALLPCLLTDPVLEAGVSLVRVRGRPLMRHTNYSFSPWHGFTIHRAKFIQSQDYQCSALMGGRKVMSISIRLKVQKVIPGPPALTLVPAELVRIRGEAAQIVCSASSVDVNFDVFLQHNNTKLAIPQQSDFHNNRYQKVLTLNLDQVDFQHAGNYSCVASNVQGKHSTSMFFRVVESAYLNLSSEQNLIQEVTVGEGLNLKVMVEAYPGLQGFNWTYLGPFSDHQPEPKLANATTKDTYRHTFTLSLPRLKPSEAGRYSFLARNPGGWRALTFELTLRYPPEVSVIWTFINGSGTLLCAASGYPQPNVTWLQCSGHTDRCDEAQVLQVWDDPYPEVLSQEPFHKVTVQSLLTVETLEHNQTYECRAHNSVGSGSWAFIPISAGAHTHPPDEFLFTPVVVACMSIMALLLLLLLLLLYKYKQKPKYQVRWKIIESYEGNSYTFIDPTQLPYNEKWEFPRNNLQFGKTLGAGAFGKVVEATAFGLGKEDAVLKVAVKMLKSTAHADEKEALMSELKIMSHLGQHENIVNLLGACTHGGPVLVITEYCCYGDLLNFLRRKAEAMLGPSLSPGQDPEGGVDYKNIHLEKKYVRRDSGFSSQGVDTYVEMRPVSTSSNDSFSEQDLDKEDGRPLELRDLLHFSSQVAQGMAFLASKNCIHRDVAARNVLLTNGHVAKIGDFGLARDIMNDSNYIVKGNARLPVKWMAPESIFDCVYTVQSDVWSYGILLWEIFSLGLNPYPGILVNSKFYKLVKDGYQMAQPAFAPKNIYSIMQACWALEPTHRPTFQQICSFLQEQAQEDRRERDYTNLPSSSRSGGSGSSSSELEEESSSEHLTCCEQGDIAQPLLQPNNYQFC

Regarding `Cl.O=C1Nc2ccc(F)cc2/C1=C1/Nc2ccccc2/C1=N\OCCN1CCNCC1`, the pIC50 in series [1] was 9.49; in series [2], 8.38; in series [3], 8.52; in series [4] it was 9.06. For the same compound, halving of growth in series [5] (GI50) required 1100 nM. Besides, the inhibition amounted to 43% in series [6], 99% in series [8] and 98% in [10]. The compound further displayed an inhibition at 10 µM in series [7] of 21.4%. The same compound came in with a bioavailability in series [9] of 42.6%.
